ChEMBL document CHEMBL1201862, “PubChem BioAssay data set” (2004)
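Growth conditions: 96-well plates. Treatment: test compound, 48 hours, 5 concentrations. Analysis: linear interpolation between bracketing concentrations; unreached endpoints set to highest concentration. GI50 marks 50% less growth.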 Activity calls are given as the source filed them. Rule as the data show it: active = GI50 up to about 1.1 µM and inactive = higher.

Experiments:
Test in all cases: NCI-60 cell line screen, 48 h
786-0 = test system: 786-0
OVCAR-4 = test system: OVCAR-4
SK-MEL-2 = test system: SK-MEL-2
MCF7 = test system: MCF7
HL-60 = test system: HL-60
HT-29 = test system: HT-29
K562 = test system: K562
SNB-75 = test system: SNB-75
Malme-3M = test system: Malme-3M
SK-MEL-5 = test system: SK-MEL-5
SK-MEL-28 = test system: SK-MEL-28
RPMI-8226 = test system: RPMI-8226
CAKI-1 = test system: CAKI-1
CCRF-CEM = test system: CCRF-CEM
HCT-116 = test system: HCT-116
MDA-MB-231 = test system: MDA-MB-231
SF-539 = test system: SF-539
SK-OV-3 = test system: SK-OV-3
SNB-19 = test system: SNB-19
UO-31 = test system: UO-31
NCI-H226 = test system: NCI-H226
SW-620 = test system: SW-620
SF-295 = test system: SF-295
U-251 = test system: U-251
MDA-N = test system: MDA-N
IGROV-1 = test system: IGROV-1
ACHN = test system: ACHN
SN12C = test system: SN12C
NCI-H460 = test system: NCI-H460
A498 = test system: A498
NCI-H522 = test system: NCI-H522
T47D = test system: T47D
UACC-257 = test system: UACC-257
RXF 393 = test system: RXF 393
COLO 205 = test system: COLO 205
LOX IMVI = test system: LOX IMVI
HCT-15 = test system: HCT-15
KM12 = test system: KM12
MDA-MB-435 = test system: MDA-MB-435
SF-268 = test system: SF-268
EKVX = test system: EKVX
PC-3 = test system: PC-3
NCI-H23 = test system: NCI-H23
DU-145 = test system: DU-145
HOP-92 = test system: HOP-92
HCC 2998 = test system: HCC 2998
SR = test system: SR
OVCAR-3 = test system: OVCAR-3
OVCAR-8 = test system: OVCAR-8
OVCAR-5 = test system: OVCAR-5
Hs-578T = test system: Hs-578T
TK-10 = test system: TK-10
NCI/ADR-RES = test system: NCI/ADR-RES
MOLT-4 = test system: MOLT-4
A549 = test system: A549
BT-549 = test system: BT-549
UACC-62 = test system: UACC-62
HOP-62 = test system: HOP-62
M14 = test system: M14

## Cc1nc2c(o1)C(=O)c1ccccc1/C2=N/c1ccc(N2CCOCC2)cc1
786-0
  GI50: 22.6 µM (inactive)
OVCAR-4
  GI50: 2.99 µM (inactive)
SK-MEL-2
  GI50: 2.75 µM (inactive)
MCF7
  GI50: 2.77 µM (inactive)
HL-60
  GI50: 1.83 µM (inactive)
HT-29
  GI50: 24.8 µM (inactive)
K562
  GI50: 3.28 µM (inactive)
SNB-75
  GI50: 2.46 µM (inactive)
Malme-3M
  GI50: 1.74 µM (inactive)
SK-MEL-5
  GI50: 1.79 µM (inactive)
SK-MEL-28
  GI50: 3.15 µM (inactive)
RPMI-8226
  GI50: 3.38 µM (inactive)
CAKI-1
  GI50: 13.2 µM (inactive)
CCRF-CEM
  GI50: 4.57 µM (inactive)
HCT-116
  GI50: 3.35 µM (inactive)
MDA-MB-231
  GI50: 2.7 µM (inactive)
SF-539
  GI50: 2.49 µM (inactive)
SK-OV-3
  GI50: 37.8 µM (inactive)
SNB-19
  GI50: 8.47 µM (inactive)
UO-31
  GI50: 3.43 µM (inactive)
NCI-H226
  GI50: 20.5 µM (inactive)
SW-620
  GI50: 3.89 µM (inactive)
SF-295
  GI50: 2.52 µM (inactive)
U-251
  GI50: 3.52 µM (inactive)
MDA-N
  GI50: 1.93 µM (inactive)
IGROV-1
  GI50: 8.71 µM (inactive)
ACHN
  GI50: 3.61 µM (inactive)
SN12C
  GI50: 3.18 µM (inactive)
NCI-H460
  GI50: 11.1 µM (inactive)
A498
  GI50: 18.7 µM (inactive)
NCI-H522
  GI50: 2.48 µM (inactive)
T47D
  GI50: 3.01 µM (inactive)
UACC-257
  GI50: 1.94 µM (inactive)
RXF 393
  GI50: 0.421 µM (active)
COLO 205
  GI50: 23.7 µM (inactive)
LOX IMVI
  GI50: 2.01 µM (inactive)
HCT-15
  GI50: 3.66 µM
KM12
  GI50: 16 µM (inactive)
MDA-MB-435
  GI50: 1.94 µM (inactive)
SF-268
  GI50: 4.48 µM (inactive)
EKVX
  GI50: 7.73 µM (inactive)
PC-3
  GI50: 2.08 µM (inactive)
NCI-H23
  GI50: 2.39 µM (inactive)
DU-145
  GI50: 3.31 µM (inactive)
HOP-92
  GI50: 10.7 µM (inactive)
HCC 2998
  GI50: 34.1 µM (inactive)
SR
  GI50: 3.86 µM (inactive)
OVCAR-3
  GI50: 1.69 µM (inactive)
OVCAR-8
  GI50: 2.81 µM (inactive)
OVCAR-5
  GI50: 18.2 µM (inactive)
Hs-578T
  GI50: 3.22 µM (inactive)
TK-10
  GI50: 48 µM (inactive)
NCI/ADR-RES
  GI50: 2.88 µM (inactive)
MOLT-4
  GI50: 4.91 µM (inactive)
A549
  GI50: 6.19 µM (inactive)
BT-549
  GI50: 2.12 µM (inactive)
UACC-62
  GI50: 2.03 µM (inactive)
HOP-62
  GI50: 8.85 µM (inactive)
M14
  GI50: 1.8 µM (inactive)

## CCCCCC/C=C\CCCCCCCCCC1=CC(=O)C=C(OC)C1=O [IRISQUINONE A]
786-0
  GI50: 4.68 µM (inactive)
OVCAR-4
  GI50: 2.05 µM (inactive)
SK-MEL-2
  GI50: 4.34 µM (inactive)
MCF7
  GI50: 4.46 µM (inactive)
HL-60
  GI50: 1.88 µM (inactive)
HT-29
  GI50: 3.19 µM (inactive)
K562
  GI50: 0.753 µM (active)
SNB-75
  GI50: 2.43 µM (inactive)
Malme-3M
  GI50: 12.3 µM (inactive)
SK-MEL-5
  GI50: 2.54 µM (inactive)
SK-MEL-28
  GI50: 11.5 µM (inactive)
RPMI-8226
  GI50: 2.21 µM (inactive)
CAKI-1
  GI50: 3.48 µM (inactive)
CCRF-CEM
  GI50: 1.57 µM (inactive)
HCT-116
  GI50: 3.43 µM (inactive)
MDA-MB-231
  GI50: 4.36 µM (inactive)
SF-539
  GI50: 2.05 µM (inactive)
SK-OV-3
  GI50: 4.36 µM (inactive)
SNB-19
  GI50: 2.89 µM (inactive)
UO-31
  GI50: 4.57 µM (inactive)
NCI-H226
  GI50: 2.52 µM (inactive)
SW-620
  GI50: 4.6 µM (inactive)
SF-295
  GI50: 3.6 µM (inactive)
U-251
  GI50: 0.713 µM (active)
MDA-N
  GI50: 6.5 µM (inactive)
IGROV-1
  GI50: 2.23 µM (inactive)
ACHN
  GI50: 3.18 µM (inactive)
SN12C
  GI50: 3.03 µM (inactive)
NCI-H460
  GI50: 2.72 µM (inactive)
A498
  GI50: 5.82 µM (inactive)
NCI-H522
  GI50: 2 µM (inactive)
T47D
  GI50: 2.23 µM (inactive)
UACC-257
  GI50: 3.28 µM (inactive)
RXF 393
  GI50: 3.01 µM (inactive)
COLO 205
  GI50: 1.63 µM (inactive)
LOX IMVI
  GI50: 4.06 µM (inactive)
HCT-15
  GI50: 2.1 µM
KM12
  GI50: 3.75 µM (inactive)
MDA-MB-435
  GI50: 3.81 µM (inactive)
SF-268
  GI50: 5.93 µM (inactive)
EKVX
  GI50: 3.57 µM (inactive)
PC-3
  GI50: 1.81 µM (inactive)
NCI-H23
  GI50: 3.37 µM (inactive)
DU-145
  GI50: 5.62 µM (inactive)
HOP-92
  GI50: 2.52 µM (inactive)
HCC 2998
  GI50: 8.24 µM (inactive)
SR
  GI50: 2.72 µM (inactive)
OVCAR-3
  GI50: 3.98 µM (inactive)
OVCAR-8
  GI50: 0.593 µM (active)
OVCAR-5
  GI50: 5.6 µM (inactive)
Hs-578T
  GI50: 7.36 µM (inactive)
TK-10
  GI50: 6.05 µM (inactive)
NCI/ADR-RES
  GI50: 3.8 µM (inactive)
MOLT-4
  GI50: 3.79 µM (inactive)
A549
  GI50: 4.06 µM (inactive)
BT-549
  GI50: 2.16 µM (inactive)
UACC-62
  GI50: 4.05 µM (inactive)
HOP-62
  GI50: 3.48 µM (inactive)
M14
  GI50: 4.19 µM (inactive)
